Measurements published in article PMC9180621, “Preparation of Novel Pyrazolo[4,3-e]tetrazolo[1,5-b][1,2,4]triazine Sulfonamides and Their Experimental and Computational Biological Studies” (International Journal of Molecular Sciences, 2022).

Experiments:
BxPC-3 cells = assay: Dual acridine orange/ethidium bromide (AO/EB) fluorescent staining, apoptosis; format: cell-based, human; settings: for increase in the apoptotic cell fraction: BxPC-3, both tested concentrations (IC50, 2xIC50), 24 and 48 h incubation
Method: (§1) Data are presented as mean percentage of apoptotic cells (early and late apoptotic) ± SD values. The differences between the experimental samples and vehicle control were evaluated by the ANOVA test followed by Tukey’s test (p < 0.05). Experiments were performed in triplicate. For flow cytometry analysis with Annexin V-FITC staining, the approximate number of analyzed cells was (N = 1 × 10^4), contrasting with the dual acridine orange/ethidium bromide (AO/EB) fluorescent staining (N = 200). Acridine orange/ethidium bromide (AO/EB) staining is used to detect nuclear alterations and the development of apoptotic bodies, which are both indicative of apoptosis. Acridine orange penetrates into living cells, emitting green fluorescence after intercalation into DNA. The second dye, ethidium bromide, emits red fluorescence in cells with an altered cell membrane. The cells are divided into three categories as follows: living cells (green nucleus with red orange cytoplasm); apoptotic (green irregularly nuclei with chromatin condensation or fragmentation); and necrotic cells (uniformly orange-stained cell nuclei). Programmed cell death is measured by counting the number of cells that undergo apoptosis under a fluorescent microscope. BxPC-3 and PC-3 cells were seeded at an appropriate density on 12-well plates (Table 9). […] Following the incubation period, cells were incubated with fluorochromes (AO/EB: 100 µM; 1:1, v/v) for 5 min at 37 °C in the dark. Viable, apoptotic, or necrotic cells were distinguished using this method based on differential uptake of fluorescent DNA-binding dyes (AO/EB) with the structural aspect of chromatin condensation in the stained nucleus. Cells were analyzed using a fluorescence microscope (Olympus BX60 F5 Olympus Optical Co., Ltd., Nagano, Japan) at 360 nm. The results were obtained from three independent experiments.

PC-3 cells = assay: as above; format: cell-based, human; settings: PC-3, 48 h incubation, control 1.5 ± 0.7%; for mean % of apoptotic cells: AO/EB, ± SD; for % of apoptotic cells, both tested concentrations: IC50 and 2xIC50, AO/EB
Method: as §1

HCT-116 cells = assay: MTT assay, cell viability; format: cell-based; settings: Homo sapiens, HCT-116, 72 h incubation, ± SD
Method: (§2) A statistical program (Graphpad Prism 7) was used to analyze obtained data (MTT test). The dose–response analysis was performed to estimate the inhibitory concentration (IC50) of the tested compounds. The IC50 value is defined as a concentration of the tested compound that leads to a reduction in cell pool viability by 50% compared to the negative control (accepted as 100%). % cell viability=Absorbance value of treated cells−Absorbance value of blank/Absorbance value of untreated cells−Absorbance value of blank×100%
To estimate cell viability following 72 h incubation with the tested MM-compounds (MM134, MM136, MM137, and MM139), the MTT test was used according to the PN-EN ISO 10993-5. It is a quantitative method based on the tetrazolium yellow dye MTT [3(4,5-dimethyl-2-thiazolyl)-2,5-diphenyl-2H-tetrazolium bromide], which is converted by living cells to a purple product, formazan, the concentration of which was measured colorimetrically. The MTT assay was performed according to the procedure described by Mosmann with modifications. At a density of approximately 8 × 10^3 cells per 100 µL/well, 96-well plates were seeded. Following the given incubation period in controlled conditions (37 °C; 5% CO2), cells were exposed to different concentrations of tested compounds in DMSO (range 0.05–3 µM) in a volume of 100 µL medium per well. Final solvent concentration of DMSO was < 0.5% v/v. The experimental design included vehicle controls and blanks (wells without cells).
After 72 h of incubation of cells with tested MM-compounds, 20 µL of MTT tetrazolium salt (5 mg/mL in PBS) was added to each well, and plates were incubated once again in a humidified atmosphere for 3 h (37 °C; 5% CO2). Following the incubation time, the solutions were removed and 100 µL of DMSO was added to dissolve the formazan complexes. Subsequently, a spectrophotometer (microplate reader Power Wave XS BioTek Instruments, Inc., Winooski, VT, USA) reading was performed at 570 nm. The experiments were performed in duplicates.

[1] = test system: cancer cell lines (BxPC-3, HCT-116, PC-3); assay: MTT assay, cancer cell lines together; format: cell-based; settings: Homo sapiens; range over BxPC-3, HCT-116, PC-3; 72 h MTT; read-out: IC50 values in cancer cells
Method: as §2
To estimate cell viability following 72 h incubation with the tested MM-compounds (MM134, MM136, MM137, and MM139), the MTT test was used according to the PN-EN ISO 10993-5. It is a quantitative method based on the tetrazolium yellow dye MTT [3(4,5-dimethyl-2-thiazolyl)-2,5-diphenyl-2H-tetrazolium bromide], which is converted by living cells to a purple product, formazan, the concentration of which was measured colorimetrically. […]
After 72 h of incubation of cells with tested MM-compounds, 20 µL of MTT tetrazolium salt (5 mg/mL in PBS) was added to each well, and plates were incubated once again in a humidified atmosphere for 3 h (37 °C; 5% CO2). […] Subsequently, a spectrophotometer (microplate reader Power Wave XS BioTek Instruments, Inc., Winooski, VT, USA) reading was performed at 570 nm. […]

Compound | increase in the apoptotic cell fraction (BxPC-3 cells) | mean % of apoptotic cells (PC-3 cells; 2xIC50 concentration) [%] | mean % of apoptotic cells (PC-3 cells; IC50 concentration) [%] | IC50 (HCT-116 cells) [nM] | increase in apoptotic fraction (BxPC-3 cells; BxPC-3, IC50 concentration, 24 h incubation) | % of apoptotic cells, both tested concentrations (PC-3 cells) | IC50 [1] [nM]
Cc1nn(-c2ccc(S(=O)(=O)NCCN3CCOCC3)cc2)c2nn3nnnc3nc12 [MM134] | statistically significant increase | 11 ± 1.41 | 8.5 ± 0.7 |  |  |  | 
Cc1nn(-c2ccc(S(=O)(=O)N3CCN(C)CC3)cc2)c2nn3nnnc3nc12 [MM137] |  | 24 ± 1.41 | 15 ± 2.82 | 140 ± 20 | did not induce a significant increase | statistically significant increase | 110 to 160
Cc1nn(-c2ccc(S(=O)(=O)N3CCCCC3)cc2)c2nn3nnnc3nc12 [MM139] | statistically significant increase | 12.5 ± 0.7 | 13.5 ± 3.53 | 350 ± 50 |  | statistically significant increase | 
